For 2 molecules, logD and efflux ratio results are on record in ChEMBL document CHEMBL4732037, “Drugging the undruggable: a computational chemist''s view of KRASG12C” (RSC Med Chem, 2021).

For orientation: logD means lipophilicity at a set pH, counting ionised and neutral species. Higher therefore signals higher lipophilicity. A word on the efflux ratio: it is a quotient of directional permeabilities that is used to spot active efflux.

A short description of data set [1]: Lipophilicity, log D of compound. The data set is classed as physicochemical. Conditions: octanol/water.
Data set [2] is described as follows: Efflux ratio in human Caco2 cells. Type of data set: ADME, cell-based. Conditions: Caco-2. A general note: Caco-2 monolayers are a common model of the intestinal barrier.

On to `C=CC(=O)N1CCN2c3c(cnc4cc(-c5c(O)cccc5F)c(Cl)cc34)NC(=O)[C@H]2C1`, for which, in data set [1], the logD turned out to be 3.
As to `C=CC(=O)N1CCN2c3c(cnc4cc(-c5c(O)cccc5F)c(Cl)cc34)N(C)C(=O)[C@H]2C1`, the logD in data set [1] worked out at 3. Further, the efflux ratio in data set [2] turned out to be 0.9.
